Reference: US11339161B2, “Triazolo pyridines as modulators of gamma-secretase” (Boehringer Ingelheim International GmbH, priority 2017, dated 2022)
Read-outs that look alike come from different tables or passages of the source.

Experiments:
MAP4K4 (HGK) = MAP4K4 (HGK) (Homo sapiens, UniProt O95819); assay: Z'-LYTE SelectScreen biochemical kinase assay MAP4K4 (HGK)
From the text: (§1) Thermo Fisher Scientific SelectScreen™ Biochemical Kinase Profiling Service Z′-LYTE™ Screening Protocol and Assay Conditions Assay Theory
(§2) The […] biochemical assay employs a fluorescence-based, coupled-enzyme format and is based on the differential sensitivity of phosphorylated and non-phosphorylated peptides to proteolytic cleavage. The peptide substrate is labeled with two fluorophores—one at each end—that make up a FRET pair. In the primary reaction, the kinase transfers the gamma-phosphate of ATP to a single tyrosine, serine or threonine residue in a synthetic FRET-peptide. In the secondary reaction, a site-specific protease recognizes and cleaves non-phosphorylated FRET-peptides. Phosphorylation of FRET-peptides suppresses cleavage by the Development Reagent. Cleavage disrupts FRET between the donor (i.e., coumarin) and acceptor (i.e., fluorescein) fluorophores on the FRET-peptide, whereas uncleaved, phosphorylated FRET-peptides maintain FRET. A ratiometric method, which calculates the ratio (Emission Ratio=Coumarin emission (445 nm)/Fluorescein emission (520 nm)) of donor emission to acceptor emission after excitation of the donor fluorophore at 400 nm, is used to quantitate reaction progress, as shown in the equation below. A significant benefit of this ratiometric method for quantitating reaction progress is the elimination of well-to-well variations in FRET-peptide concentration and signal intensities. As a result, the assay yields very high Z′-factor values (>0.7) at a low percent phosphorylation. Both cleaved and uncleaved FRET-peptides contribute to the fluorescence signals and therefore to the Emission Ratio. The extent of phosphorylation of the FRET-peptide can be calculated from the Emission Ratio. The Emission Ratio will remain low if the FRET-peptide is phosphorylated (i.e., no kinase inhibition) and will be high if the FRET-peptide is non-phosphorylated (i.e., kinase inhibition).
(§3) The Test Compounds are screened in 1% DMSO (final) in the well. For 10 point titrations, 3-fold serial dilutions are conducted from the starting concentration of the customer's choosing.
(§4) All Peptide/Kinase Mixtures are diluted to a 2× working concentration in the appropriate Kinase Buffer (see section Kinase Specific Assay Conditions for a complete description).
(§5) All ATP Solutions are diluted to a 4× working concentration in Kinase Buffer (50 mM HEPES pH 7.5, 0.01% BRIJ-35, 10 mM MgCl2, 1 mM EGTA). ATP Km apparent is previously determined using a Z″-LYTE assay.
(§6) The Development Reagent is diluted in Development Buffer (see section Kinase-Specific Assay Conditions—Direct and Cascade for a complete description).
(§7) Bar-coded Corning, low volume NBS, black 384-well plate (Corning Cat. #4514) • 1. 100 nL—100× Test Compound in 100% DMSO • 2. 2.4 μL—Kinase buffer • 3. 5 μL—2× Peptide/Kinase Mixture • 4. 2.5 μL—4×ATP Solution • 5. 30—second plate shake • 6. 60—minute Kinase Reaction incubation at room temperature • 7. 5 μL—Development Reagent Solution • 8. 30—second plate shake • 9. 60—minute Development Reaction incubation at room temperature • 10. Read on fluorescence plate reader and analyze the data Z′-LYTE Assay Controls
(§8) SelectScreen Kinase Profiling Service uses XLfit from IDBS. The dose response curve is curve fit to model number 205 (sigmoidal dose-response model).
The 2×MAP4K4 (HGK)/Ser/Thr 07 mixture is prepared in 50 mM HEPES pH 7.5, 0.01% BRIJ-35, 10 mM MgCl2, 1 mM EGTA. The final 10 μL Kinase Reaction consists of 0.36-1.82 ng MAP4K4 (HGK) and 2 μM Ser/Thr 07 in 50 mM HEPES pH 7.5, 0.01% BRIJ-35, 10 mM MgCl2, 1 mM EGTA. After the 1 hour Kinase Reaction incubation, 5 μL of a 1:45000 dilution of Development Reagent A is added.

KDR (VEGFR2) = KDR (VEGFR2) (Homo sapiens, UniProt P35968); assay: Z'-LYTE SelectScreen biochemical kinase assay KDR (VEGFR2)
From the text: as §1, §2, §3, §4, §5, §6, §7, §8
The 2×KDR (VEGFR2)/Tyr 01 mixture is prepared in 50 mM HEPES pH 7.5, 0.01% BRIJ-35, 10 mM MgCl2, 1 mM EGTA. The final 10 μL Kinase Reaction consists of 1-30 ng KDR (VEGFR2) and 2 μM Tyr 01 in 50 mM HEPES pH 7.5, 0.01% BRIJ-35, 10 mM MgCl2, 1 mM EGTA. After the 1 hour Kinase Reaction incubation, 5 μL of a 1:256 dilution of Development Reagent B is added.

[1] = 10 μmolar compound concentration, ATP at Km app, read-out: MAP4K4 (HGK) inhibition
[2] = read-out: % Inhibition mean MAP4K4 (HGK)
[3] = 10 μmolar compound concentration, ATP at Km app, read-out: KDR (VEGFR2) inhibition
[4] = read-out: % Inhibition mean KDR (VEGFR2)

KDR (VEGFR2), sequence (P35968 20-1356): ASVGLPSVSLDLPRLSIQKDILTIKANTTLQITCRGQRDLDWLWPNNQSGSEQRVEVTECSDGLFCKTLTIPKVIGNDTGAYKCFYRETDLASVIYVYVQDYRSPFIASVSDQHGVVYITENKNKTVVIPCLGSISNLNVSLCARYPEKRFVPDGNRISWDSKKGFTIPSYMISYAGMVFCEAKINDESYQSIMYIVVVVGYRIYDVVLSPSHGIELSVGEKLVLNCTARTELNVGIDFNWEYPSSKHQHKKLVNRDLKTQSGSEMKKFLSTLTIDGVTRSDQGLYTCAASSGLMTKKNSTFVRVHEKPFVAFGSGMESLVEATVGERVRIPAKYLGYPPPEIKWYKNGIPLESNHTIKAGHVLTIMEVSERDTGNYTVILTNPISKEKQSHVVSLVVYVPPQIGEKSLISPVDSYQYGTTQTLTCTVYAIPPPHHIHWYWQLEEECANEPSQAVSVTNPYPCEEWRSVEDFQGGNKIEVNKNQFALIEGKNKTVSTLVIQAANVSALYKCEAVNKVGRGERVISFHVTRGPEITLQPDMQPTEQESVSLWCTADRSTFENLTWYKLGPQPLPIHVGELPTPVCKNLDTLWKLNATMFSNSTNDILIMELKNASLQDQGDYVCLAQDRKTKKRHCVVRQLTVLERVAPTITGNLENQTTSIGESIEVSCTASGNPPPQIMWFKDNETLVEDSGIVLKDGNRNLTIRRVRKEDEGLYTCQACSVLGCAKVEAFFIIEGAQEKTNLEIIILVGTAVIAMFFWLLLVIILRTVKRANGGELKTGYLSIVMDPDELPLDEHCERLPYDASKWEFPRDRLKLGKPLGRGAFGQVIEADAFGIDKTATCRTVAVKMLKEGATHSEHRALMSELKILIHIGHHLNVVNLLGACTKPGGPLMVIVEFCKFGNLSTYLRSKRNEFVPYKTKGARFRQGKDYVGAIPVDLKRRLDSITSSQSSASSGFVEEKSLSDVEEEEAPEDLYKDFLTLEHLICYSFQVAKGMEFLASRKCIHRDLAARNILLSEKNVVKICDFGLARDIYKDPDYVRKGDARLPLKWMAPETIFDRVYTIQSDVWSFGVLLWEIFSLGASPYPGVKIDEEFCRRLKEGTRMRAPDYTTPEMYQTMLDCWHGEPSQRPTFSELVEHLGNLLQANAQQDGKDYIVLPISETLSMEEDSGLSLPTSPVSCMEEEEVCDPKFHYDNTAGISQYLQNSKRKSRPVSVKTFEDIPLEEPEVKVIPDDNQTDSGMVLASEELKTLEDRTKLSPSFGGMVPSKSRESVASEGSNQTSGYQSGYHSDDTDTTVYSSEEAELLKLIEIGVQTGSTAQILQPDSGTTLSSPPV
MAP4K4 (HGK), sequence (O95819 whole entry): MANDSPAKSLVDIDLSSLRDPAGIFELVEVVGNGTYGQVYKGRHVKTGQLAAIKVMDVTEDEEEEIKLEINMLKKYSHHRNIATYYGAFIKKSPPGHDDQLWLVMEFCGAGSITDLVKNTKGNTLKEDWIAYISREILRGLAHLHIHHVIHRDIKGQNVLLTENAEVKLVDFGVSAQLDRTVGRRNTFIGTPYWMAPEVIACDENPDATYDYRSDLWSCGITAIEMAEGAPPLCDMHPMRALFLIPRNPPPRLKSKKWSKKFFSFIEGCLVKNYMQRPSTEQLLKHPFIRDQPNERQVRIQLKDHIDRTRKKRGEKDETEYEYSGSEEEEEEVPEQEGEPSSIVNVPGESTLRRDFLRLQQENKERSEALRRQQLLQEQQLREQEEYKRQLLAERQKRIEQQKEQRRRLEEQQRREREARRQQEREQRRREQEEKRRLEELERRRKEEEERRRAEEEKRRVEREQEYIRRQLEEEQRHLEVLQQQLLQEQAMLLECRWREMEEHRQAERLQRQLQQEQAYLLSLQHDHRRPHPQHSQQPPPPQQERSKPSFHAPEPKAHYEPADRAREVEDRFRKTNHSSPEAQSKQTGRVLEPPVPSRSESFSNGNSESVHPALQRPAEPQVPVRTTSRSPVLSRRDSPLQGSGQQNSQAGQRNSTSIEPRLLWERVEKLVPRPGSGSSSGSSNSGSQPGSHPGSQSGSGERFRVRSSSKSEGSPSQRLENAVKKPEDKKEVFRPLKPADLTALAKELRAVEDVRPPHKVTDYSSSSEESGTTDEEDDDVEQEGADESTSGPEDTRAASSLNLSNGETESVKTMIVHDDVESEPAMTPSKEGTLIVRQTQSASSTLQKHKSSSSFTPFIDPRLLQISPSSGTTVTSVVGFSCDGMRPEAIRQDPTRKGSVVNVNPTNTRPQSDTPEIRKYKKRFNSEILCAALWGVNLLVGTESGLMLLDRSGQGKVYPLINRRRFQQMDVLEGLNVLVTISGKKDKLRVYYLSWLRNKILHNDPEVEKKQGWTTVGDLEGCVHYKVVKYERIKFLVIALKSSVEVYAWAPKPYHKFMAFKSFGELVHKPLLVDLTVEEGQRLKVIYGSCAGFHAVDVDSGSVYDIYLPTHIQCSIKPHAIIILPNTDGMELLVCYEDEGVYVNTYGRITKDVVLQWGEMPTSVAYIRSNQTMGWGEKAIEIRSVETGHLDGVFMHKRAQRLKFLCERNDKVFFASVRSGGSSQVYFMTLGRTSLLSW

## CCn1ncc2c1CCC(Nc1nc3c(-c4cccnc4)cccn3n1)C2 (stereo not drawn) [Example 63, (1-Ethyl-4,5,6,7-tetrahydro-1H-indazol-5-yl)-(8-pyridin-3-yl-[1,2,4]triazolo[1,5-a]pyridine-2-yl)-amine]
MAP4K4 (HGK); [1]
  inhibition at 10 µM: 40 to 80%
MAP4K4 (HGK); [2]
  inhibition at 10 µM: 48%
KDR (VEGFR2); [3]
  inhibition at 10 µM: < 40%
KDR (VEGFR2); [4]
  inhibition at 10 µM: 8%

## CCn1ncc2c1CCC(Nc1nc3c(-c4cccc(Cl)c4)cccn3n1)C2 (stereo not drawn) [Example 59, [8-(3-Chloro-phenyl)-[1,2,4]triazolo[1,5-a]pyridine-2-yl]-(1-ethyl-4,5,6,7-tetrahydro-1H-indazol-5-yl)-amine]
MAP4K4 (HGK); [1]
  inhibition at 10 µM: 40 to 80%
MAP4K4 (HGK); [2]
  inhibition at 10 µM: 57%
KDR (VEGFR2); [3]
  inhibition at 10 µM: < 40%
KDR (VEGFR2); [4]
  inhibition at 10 µM: -8%

## CCn1ncc2c1CCC(Nc1nc3c(-c4ccc(F)cc4)cccn3n1)C2 (stereo not drawn) [Example 55, (1-Ethyl-4,5,6,7-tetrahydro-1H-indazol-5-yl)-[8-(4-fluoro-phenyl)-[1,2,4]triazolo[1,5-a]pyridine-2-yl]-amine]
MAP4K4 (HGK); [1]
  inhibition at 10 µM: 40 to 80%
MAP4K4 (HGK); [2]
  inhibition at 10 µM: 51%
KDR (VEGFR2); [3]
  inhibition at 10 µM: < 40%
KDR (VEGFR2); [4]
  inhibition at 10 µM: 12%

## CCn1ncc2c1CC[C@@H](Nc1nc3c(-c4ccc(F)cc4C)cccn3n1)C2 [Example R-42, (R)-(1-Ethyl-4,5,6,7-tetrahydro-1H-indazol-5-yl)-[8-(4-fluoro-2-methyl-phenyl)-[1,2,4]triazolo[1,5-a]pyridine-2-yl]-amine]
MAP4K4 (HGK); [1]
  inhibition at 10 µM: 40 to 80%
MAP4K4 (HGK); [2]
  inhibition at 10 µM: 56%
KDR (VEGFR2); [3]
  inhibition at 10 µM: < 40%
KDR (VEGFR2); [4]
  inhibition at 10 µM: 10%

## Cc1cc(F)ccc1-c1cccn2nc(NC3CCc4c(cnn4CC(C)C)C3)nc12 (stereo not drawn) [Example 45, [8-(4-fluoro-2-methyl-phenyl)-[1,2,4]triazolo[1,5-a]pyridine-2-yl]-(1-isobutyl-4,5,6,7-tetrahydro-1H-indazol-5-yl)-amine]
MAP4K4 (HGK); [1]
  inhibition at 10 µM: < 40%
MAP4K4 (HGK); [2]
  inhibition at 10 µM: 2%
KDR (VEGFR2); [3]
  inhibition at 10 µM: < 40%
KDR (VEGFR2); [4]
  inhibition at 10 µM: -10%

## CCn1ncc2c1CCC(Nc1nc3c(-c4ccccc4C)cccn3n1)C2 (stereo not drawn) [Example 56, (1-Ethyl-4,5,6,7-tetrahydro-1H-indazol-5-yl)-[8-(2-methyl-phenyl)-[1,2,4]triazolo[1,5-a]pyridine-2-yl]-amine]
MAP4K4 (HGK); [1]
  inhibition at 10 µM: 40 to 80%
MAP4K4 (HGK); [2]
  inhibition at 10 µM: 48%
KDR (VEGFR2); [3]
  inhibition at 10 µM: < 40%
KDR (VEGFR2); [4]
  inhibition at 10 µM: 6%

## CCn1ncc2c1CCC(Nc1nc3c(-c4ccc(OC)nc4)cccn3n1)C2 (stereo not drawn) [Example 71, (1-Ethyl-4,5,6,7-tetrahydro-1H-indazol-5-yl)-[8-(6-methoxy-pyridin-3-yl)-[1,2,4]triazolo[1,5-a]pyridine-2-yl]-amine]
MAP4K4 (HGK); [1]
  inhibition at 10 µM: < 40%
MAP4K4 (HGK); [2]
  inhibition at 10 µM: 16%
KDR (VEGFR2); [3]
  inhibition at 10 µM: < 40%
KDR (VEGFR2); [4]
  inhibition at 10 µM: 17%

## Cc1cc(F)ccc1-c1cccn2nc(Nc3ccc4c(cnn4C)c3)nc12 [Example 9, [8-(4-fluoro-2-methyl-phenyl)-[1,2,4]triazolo[1,5-a]pyridine-2-yl]-(1-methyl-1H-indazol-5-yl)-amine]
MAP4K4 (HGK); [1]
  inhibition at 10 µM: < 40%
MAP4K4 (HGK); [2]
  inhibition at 10 µM: 6%
KDR (VEGFR2); [3]
  inhibition at 10 µM: < 40%
KDR (VEGFR2); [4]
  inhibition at 10 µM: 30%

## CCCn1ncc2c1CCC(Nc1nc3c(-c4ccc(F)cc4C)cccn3n1)C2 (stereo not drawn) [Example 43, [8-(4-fluoro-2-methyl-phenyl)-[1,2,4]triazolo[1,5-a]pyridine-2-yl]-(1-propyl-4,5,6,7-tetrahydro-1H-indazol-5-yl)-amine]
MAP4K4 (HGK); [1]
  inhibition at 10 µM: 40 to 80%
MAP4K4 (HGK); [2]
  inhibition at 10 µM: 40%
KDR (VEGFR2); [3]
  inhibition at 10 µM: < 40%
KDR (VEGFR2); [4]
  inhibition at 10 µM: -3%

## CCn1ncc2c1CC[C@@H](Nc1nc3c(-c4ccc(F)c(Cl)c4)cccn3n1)C2 [Example R-61, (R)-[8-(3-Chloro-4-fluoro-phenyl)-[1,2,4]triazolo[1,5-a]pyridine-2-yl]-(1-ethyl-4,5,6,7-tetrahydro-1H-indazol-5-yl)-amine]
MAP4K4 (HGK); [1]
  inhibition at 10 µM: < 40%
MAP4K4 (HGK); [2]
  inhibition at 10 µM: 24%
KDR (VEGFR2); [3]
  inhibition at 10 µM: < 40%
KDR (VEGFR2); [4]
  inhibition at 10 µM: 2%

## CCn1ncc2c1CCC(Nc1nc3c(-c4ccc(C)nc4)cccn3n1)C2 (stereo not drawn) [Example 67, (1-Ethyl-4,5,6,7-tetrahydro-1H-indazol-5-yl)-[8-(6-methyl-pyridin-3-yl)-[1,2,4]triazolo[1,5-a]pyridine-2-yl]-amine]
MAP4K4 (HGK); [1]
  inhibition at 10 µM: 40 to 80%
MAP4K4 (HGK); [2]
  inhibition at 10 µM: 49%
KDR (VEGFR2); [3]
  inhibition at 10 µM: < 40%
KDR (VEGFR2); [4]
  inhibition at 10 µM: 15%

## CCn1ncc2c1CCC(Nc1nc3c(-c4cncc(OC)c4)cccn3n1)C2 (stereo not drawn) [Example 70, (1-Ethyl-4,5,6,7-tetrahydro-1H-indazol-5-yl)-[8-(5-methoxy-pyridin-3-yl)-[1,2,4]triazolo[1,5-a]pyridine-2-yl]-amine]
MAP4K4 (HGK); [1]
  inhibition at 10 µM: 40 to 80%
MAP4K4 (HGK); [2]
  inhibition at 10 µM: 56%
KDR (VEGFR2); [3]
  inhibition at 10 µM: < 40%
KDR (VEGFR2); [4]
  inhibition at 10 µM: 12%
